The numbers were not newly measured in patent US11833149B2, “Pulse dosing regimen and methods of treatment” (OSI Pharmaceuticals, LLC, priority 2016, dated 2023), which cites them from elsewhere.

For the series the following is noted: pH of approximately 2; over the pH range of 1.4 to 9.6; cited from earlier work.

Turning to `C#Cc1cccc(Nc2ncnc3cc(OCCOC)c(OCCOC)cc23)c1.Cl` [Erlotinib hydrochloride], the maximal aqueous solubility entry is given as “approximately 0.4 mg/mL”.
